Results: US10023902B2, “Methods for detecting enzyme activity using fluorescence lifetime imaging” (Purdue Research Foundation, priority 2012, dated 2018)
Residues, ends and D or L forms follow the SMILES beside them. No end group written: not given here. *: point of attachment. X1 = C[N+]1=C(C=CC=CC=C2N(CCCCCC(=O)NCCN3C(=O)CC(*)C3=O)c3ccccc3C2(C)C)C(C)(C)c2ccccc21; Cy5 = Cy5 fluorophore label on the Cys side chain

Key:
[1] = system: MEFs; details: FCS, Cy5 alone vs biosensor
Method: Sequestration of the biosensor in endosomes was tested by staining for an endosomal marker. […] Peptide degradation, a potential issue in some cell types, was also examined.

[2] = system: Abl kinase; test: Biosensor Cy5 fluorescence lifetime analysis in live MEFs (FLIM); format: cell-based, mouse; details: control MEFs expressing Abl kinase, 50 nM, 24 h; non-parametric ANOVA, P<0.05
Method: With reference to FIG. 3, WT MEF cells (unless otherwise indicated) were cultured on cover slips and incubated with the biosensor peptide or a control (as indicated, 50 nM for each) for 24 h, then imaged using the FLIM system. Data were extracted from raw FLIM images and represented as lifetime maps of autofluorescence, Cy5 only, Abl-TAT in Abl (−/−) MEFs, Abl-TAT in WT MEFs, Abl-F-mutant, Abl-phospho. With reference to FIG. 3A, fluorophore lifetime per cell was averaged for at least 20 cells in 3-5 replicate experiments and plotted as a distribution of lifetimes observed in each condition. Error bars represent standard error of the mean for each lifetime value. […] Error bars represent SEM.
Cover slips were washed with PBS and imaged immediately.
Average lifetimes per cell for multiple cells were calculated and plotted to show the distribution of lifetimes observed for the biosensor and each control (FIG. 3G). The distributions were determined to be non-Gaussian, so non-parametric ANOVA with a Dunn's post-test was used to evaluate statistical significance (P<0.05) for differences in the mean lifetimes. […] These experiments confirmed that the increase in Cy5 lifetime was specific and due to Abl-dependent phosphorylation of the biosensor peptide on tyrosine. […]

[3] = system: Syk kinase; test: FLIM detection of Syk kinase activity with SAStide-TAT biosensor in MCF7 breast cancer cells; format: cell-based

Molecule: CC[C@H](C)[C@H](NC(=O)[C@H](C)NC(=O)[C@H](CCC(=O)O)NC(=O)CNC(=O)CN)C(=O)N[C@@H](Cc1ccc(O)cc1)C(=O)N[C@@H](C)C(=O)N[C@@H](C)C(=O)N1CCC[C@H]1C(=O)N[C@@H](CSC1CC(=O)N(CCNC(=O)CCCCCN2C(=CC=CC=CC3=[N+](C)c4ccccc4C3(C)C)C(C)(C)c3ccccc32)C1=O)C(=O)NCC(=O)NCC(=O)N[C@@H](CCCNC(=N)N)C(=O)N[C@@H](CCCCN)C(=O)N[C@@H](CCCCN)C(=O)N[C@@H](CCCNC(=N)N)C(=O)N[C@@H](CCCNC(=N)N)C(=O)N[C@@H](CCC(N)=O)C(=O)N[C@@H](CCCNC(=N)N)C(=O)N[C@@H](CCCNC(=N)N)C(=O)N[C@@H](CCCNC(=N)N)C(=O)N1CCC[C@H]1C(=O)N[C@@H](CCC(N)=O)C(=O)O (some centres unmarked) [Abl-TAT] (H-GGEAIYAAPC(X1)GGRKKRRQRRRPQ-OH)
- peptide degradation to free Cy5 [1]: not degraded to free Cy5

Molecule: CCN1/C(=C/C=C/C=C/C2=[N+](CCCCCC(=O)O)c3ccc(S(=O)(=O)O)cc3C2(C)C)C(C)(C)c2cc(S(=O)(=O)[O-])ccc21 [Cy5, reference compound]
- mean Cy5 fluorescence lifetime per cell [2]: significantly lower mean lifetimes than both Abl-TAT in MEFs expressing Abl kinase and Abl-phospho

Molecule: COc1cc(Nc2ncc(F)c(Nc3ccc4c(n3)N(COP(=O)(O)O)C(=O)C(C)(C)O4)n2)cc(OC)c1OC [fostamatinib, reference compound]
- regions of increased Cy5 lifetime after inhibitor pre-treatment ([3]; Syk +/+ cells pre-treated with SAStide-TAT-Cy5 biosensor and inhibitor, 1 hour): no regions of increased lifetime were observed

Molecule: Abl-F-mutant: analog having a phenylalanine substitution for the tyrosine residue of the Abltide-TAT biosensor, SEQ ID NO:3 (EAIYAAP)
- mean Cy5 fluorescence lifetime per cell [2]: significantly lower mean lifetimes than both Abl-TAT in MEFs expressing Abl kinase and Abl-phospho

Molecule: DEEDYEEPDEPGGCCy5GGRKKRRQRRRPQ (DEEDYEEPDEPGGC(Cy5)GGRKKRRQRRRPQ) [SAStide-TAT, Cy5-labeled Syk substrate peptide]
- Cy5 lifetime shift of biosensor ([3]; active Syk-expressing cells, pervanadate (Syk activation conditions), co-localizes with decreased EGFP lifetime): increased Cy5 lifetime
